Our source for the IC50 values is patent publication US12286427B2, “Heterocyclic compounds and uses thereof” (Kumquat Biosciences Inc., priority 2020, dated 2025).

The term IC50 denotes the midpoint of a concentration-inhibition curve.

One test deals with T1, wildtype Kras (Homo sapiens, UniProt P01116).
T1 construct: GST (N); made in house; host or cells: E. coli, e.g. BL21 (DE3)
Kind of test: Nucleotide exchange assay (SOS1-mediated, BODIPY FL GDP fluorescence). Type of test: biochemical. The following applies: 250 nM or 500 nM GDP-loaded K-Ras, SOS1 catalytic domain, fluorescent labelled GDP 0.36 μM, 70 minutes; read-out: IC50 against wildtype Kras. The procedure: (§1) For example, 250 nM or 500 nM GDP-loaded K-Ras proteins (e.g., wildtype or a mutant thereof including those mentioned in Example 6), each was incubated with different concentrations of compounds (for example ˜60 μM, ˜20 μM, ˜6.7 μM, ˜2.2 μM, ˜0.7 μM, ˜0.2 μM subject compound). A control reaction without subject compound was also included. SOS1 (catalytic domain) protein was added to the K-Ras protein solution. The nucleotide exchange reaction was initiated by adding fluorescent labelled GDP (Guanosine 5′-Diphosphate, BODIPY™ FL 2′-(or-3′)—O—(N-(2-Aminoethyl) Urethane) to a final concentration of 0.36 μM. Fluorescence was measured every 30 s for 70 minutes at 490 nm/515 nm (excitation/emission) in a M1000Pro plate reader (Tecan). Data is exported and analyzed to calculate an IC50 using GraphPad Prism (GraphPad Software). Samples were tested with or without a subject compound disclosed herein including compounds exemplified in Table 1 to assess each compound's ability to inhibit K-Ras signaling or its IC50 against a given Ras protein (e.g., a given mutant K-Ras) of interest.

Another test has as its target mutant Kras (Homo sapiens, UniProt P01116). Described as above. Type of test: biochemical. To be noted: 250 nM or 500 nM GDP-loaded K-Ras, SOS1 catalytic domain, fluorescent labelled GDP 0.36 μM, 70 minutes; read-out: IC50 against mutant Kras. The method, then:
as §1

T1 sequence (P01116 1-188 isoform P01116-2): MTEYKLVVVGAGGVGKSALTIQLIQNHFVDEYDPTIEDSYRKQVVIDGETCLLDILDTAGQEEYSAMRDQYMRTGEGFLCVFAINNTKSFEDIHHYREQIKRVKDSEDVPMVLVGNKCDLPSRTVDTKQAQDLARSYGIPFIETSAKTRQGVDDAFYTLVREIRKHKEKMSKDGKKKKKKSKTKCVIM
Chain of mutant Kras (P01116 whole entry G12D, form open, the tested form may be a part): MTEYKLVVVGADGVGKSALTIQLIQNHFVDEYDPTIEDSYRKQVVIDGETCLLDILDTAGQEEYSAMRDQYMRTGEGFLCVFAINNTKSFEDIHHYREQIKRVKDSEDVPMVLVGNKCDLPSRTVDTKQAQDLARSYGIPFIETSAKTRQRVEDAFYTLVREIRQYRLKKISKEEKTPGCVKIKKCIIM

For `CN1CCC[C@H]1COc1nc(N2C[C@H](N)C[C@H](F)C2)c2cc(Cl)c(-c3cccc4sc(N)nc34)c(F)c2n1` [Compound 6, 4-(4-((3R,5S)-3-amino-5-fluoropiperidin-1-yl)-6-chloro-8-fluoro-2-(((S)-1-methylpyrrolidin-2-yl)methoxy)quinazolin-7-yl)benzo[d]thiazol-2-amine], the IC50 at wildtype Kras was over 5000 nM; on mutant Kras it was 500 to 5000 nM.

For the compound `COc1nc2c(N3CC4CCC(C3)N4)nc(OC[C@@]34CCCN3C[C@H](F)C4)nc2cc1-c1ccc(F)c2sc(N)nc12` [Compound 14, 4-(4-(3,8-diazabicyclo[3.2.1]octan-3-yl)-2-(((2R,7aS)-2-fluorotetrahydro-1H-pyrrolizin-7a(5H)-yl)methoxy)-6-methoxypyrido[3,2-d]pyrimidin-7-yl)-7-fluorobenzo[d]thiazol-2-amine], the IC50 was 500 to 5000 nM at wildtype Kras and under 500 nM at mutant Kras.

`CN1CCC[C@H]1COc1nc(N2CC(N)CC(O)C2)c2cc(Cl)c(-c3cccc4sc(N)nc34)c(F)c2n1` (stereo partly drawn) [Compound 5, 5-amino-1-(7-(2-aminobenzo[d]thiazol-4-yl)-6-chloro-8-fluoro-2-(((S)-1-methylpyrrolidin-2-yl)methoxy)quinazolin-4-yl)piperidin-3-ol]: the figures for the IC50 on wildtype Kras and at mutant Kras were 500 to 5000 nM and under 500 nM, respectively.

For `CN1CCC[C@H]1COc1nc(N2CC[C@H](N)C2)c2cc(Cl)c(-c3cccc4sc(N)nc34)c(F)c2n1` [Compound 11, 4-(4-((S)-3-aminopyrrolidin-1-yl)-6-chloro-8-fluoro-2-(((S)-1-methylpyrrolidin-2-yl)methoxy)quinazolin-7-yl)benzo[d]thiazol-2-amine], the concentration for half-maximal inhibition (IC50) is 500 to 5000 nM at wildtype Kras and under 500 nM at mutant Kras.

Regarding `COc1nc2c(N3C4CCC3CNC4)nc(OC[C@@]34CCCN3C[C@H](F)C4)nc2cc1-c1ccc(F)c2sc(N)nc12` [Compound 15, 4-(4-(3,8-diazabicyclo[3.2.1]octan-8-yl)-2-(((2R,7aS)-2-fluorotetrahydro-1H-pyrrolizin-7a(5H)-yl)methoxy)-6-methoxypyrido[3,2-d]pyrimidin-7-yl)-7-fluorobenzo[d]thiazol-2-amine], the figures for the IC50 at wildtype Kras and at mutant Kras were over 5000 nM and under 500 nM, respectively.

For `Nc1sc2c(F)ccc(-c3c(Cl)cc4c(N5C[C@H]6CC[C@@H](C5)N6)nc(OC[C@@]56CCCN5C[C@H](F)C6)nc4c3F)c2c1C1CC1` [Compound 20, 4-(4-((1R,5S)-3,8-diazabicyclo[3.2.1]octan-3-yl)-6-chloro-8-fluoro-2-(((2R,7aS)-2-fluorotetrahydro-1H-pyrrolizin-7a(5H)-yl)methoxy)quinazolin-7-yl)-3-cyclopropyl-7-fluorobenzo[b]thiophen-2-amine], the IC50 was 500 to 5000 nM at wildtype Kras and under 500 nM at mutant Kras.

For `Cc1c(N)sc2cccc(-c3c(Cl)cc4c(N5C[C@H]6CC[C@@H](C5)N6)nc(OC[C@@]56CCCN5C[C@H](F)C6)nc4c3F)c12` [Compound 22, 4-(4-((1R,5S)-3,8-diazabicyclo[3.2.1]octan-3-yl)-6-chloro-8-fluoro-2-(((2R,7aS)-2-fluorotetrahydro-1H-pyrrolizin-7a(5H)-yl)methoxy)quinazolin-7-yl)-3-methylbenzo[b]thiophen-2-amine], the half-inhibitory concentration (IC50) at wildtype Kras and at mutant Kras was under 500 nM throughout.

With `COc1nc2c(N3CC4CCC(C3)N4)nc(OCC34CCCN3CCC4)nc2cc1-c1ccc(F)c2sc(N)nc12` [Compound 17, 4-(4-(3,8-diazabicyclo[3.2.1]octan-3-yl)-6-methoxy-2-((tetrahydro-1H-pyrrolizin-7a(5H)-yl)methoxy)pyrido[3,2-d]pyrimidin-7-yl)-7-fluorobenzo[d]thiazol-2-amine], the 50% inhibitory concentration (IC50) was 500 to 5000 nM on wildtype Kras and under 500 nM at mutant Kras.

Turning to `Cc1c(N)sc2c(F)ccc(-c3c(Cl)cc4c(N5C[C@H]6CC[C@@H](C5)N6)nc(OC[C@@]56CCCN5C[C@H](F)C6)nc4c3F)c12` [Compound 21, 4-(4-((1R,5S)-3,8-diazabicyclo[3.2.1]octan-3-yl)-6-chloro-8-fluoro-2-(((2R,7aS)-2-fluorotetrahydro-1H-pyrrolizin-7a(5H)-yl)methoxy)quinazolin-7-yl)-7-fluoro-3-methylbenzo[b]thiophen-2-amine], the IC50 at wildtype Kras and at mutant Kras was under 500 nM in each case.

In the case of `Nc1nc2c(-c3cc4nc(OCC56CCCN5CCC6)nc(N5CC6CCC(C5)N6)c4nc3O)ccc(F)c2s1` [Compound 16, 7-(2-amino-7-fluorobenzo[d]thiazol-4-yl)-4-(3,8-diazabicyclo[3.2.1]octan-3-yl)-2-((tetrahydro-1H-pyrrolizin-7a(5H)-yl)methoxy)pyrido[3,2-d] pyrimidin-6-ol], the IC50 at wildtype Kras is over 5000 nM; at mutant Kras, under 500 nM.

On to `CN1CCC[C@H]1COc1nc(N2C[C@H](N)C[C@H](O)C2)c2cc(Cl)c(-c3cccc4sc(N)nc34)c(F)c2n1` [Compound 3, (3S,5R)-5-amino-1-(7-(2-aminobenzo[d]thiazol-4-yl)-6-chloro-8-fluoro-2-(((S)-1-methylpyrrolidin-2-yl)methoxy)quinazolin-4-yl)piperidin-3-ol], for which the IC50 is 500 to 5000 nM on wildtype Kras and under 500 nM on mutant Kras.

Take `Nc1nc2c(-c3cnc4c(N5CC6CCC(C5)N6)nc(OC[C@@]56CCCN5C[C@H](F)C6)nc4c3)ccc(F)c2s1` [Compound 13, 4-(4-(3,8-diazabicyclo[3.2.1]octan-3-yl)-2-(((2R,7aS)-2-fluorotetrahydro-1H-pyrrolizin-7a(5H)-yl)methoxy)pyrido[3,2-d]pyrimidin-7-yl)-7-fluorobenzo[d]thiazol-2-amine]: the IC50 is over 5000 nM on wildtype Kras and under 500 nM at mutant Kras.

As for `COc1nc2c(N3CCNCC3)nc(OC[C@@]34CCCN3C[C@H](F)C4)nc2cc1-c1ccc(F)c2sc(N)nc12` [Compound 18, 7-fluoro-4-(2-(((2R,7aS)-2-fluorotetrahydro-1H-pyrrolizin-7a(5H)-yl)methoxy)-6-methoxy-4-(piperazin-1-yl)pyrido[3,2-d]pyrimidin-7-yl) benzo[d]thiazol-2-amine], the values for the IC50 at wildtype Kras and on mutant Kras were over 5000 nM and 500 to 5000 nM, respectively.

Regarding `N#Cc1c(N)sc2c(F)ccc(-c3c(Cl)cc4c(N5C[C@H]6CC[C@@H](C5)N6)nc(OC[C@@]56CCCN5C[C@H](F)C6)nc4c3F)c12` [Compound 19, 4-(4-((1R,5S)-3,8-diazabicyclo[3.2.1]octan-3-yl)-6-chloro-8-fluoro-2-(((2R,7aS)-2-fluorotetrahydro-1H-pyrrolizin-7a(5H)-yl)methoxy)quinazolin-7-yl)-2-amino-7-fluorobenzo[b]thiophene-3-carbonitrile], the IC50 on wildtype Kras and at mutant Kras was under 500 nM in each case.

As for `CN1CCC[C@H]1COc1nc(N2C[C@H](N)C[C@@H](F)C2)c2cc(Cl)c(-c3cccc4sc(N)nc34)c(F)c2n1` [Compound 7, 4-(4-((3R,5R)-3-amino-5-fluoropiperidin-1-yl)-6-chloro-8-fluoro-2-(((S)-1-methylpyrrolidin-2-yl)methoxy)quinazolin-7-yl)benzo[d]thiazol-2-amine], the IC50 was over 5000 nM on wildtype Kras and 500 to 5000 nM at mutant Kras.

Turning to `CN1CCC[C@H]1COc1nc(N2CCC[C@@H](N)C2)c2cc(Cl)c(-c3cccc4sc(N)nc34)c(F)c2n1` [Compound 8, 4-(4-((R)-3-aminopiperidin-1-yl)-6-chloro-8-fluoro-2-(((S)-1-methylpyrrolidin-2-yl)methoxy)quinazolin-7-yl)benzo[d]thiazol-2-amine], the IC50 is 500 to 5000 nM at wildtype Kras and under 500 nM at mutant Kras.

Regarding `CN1CCC[C@H]1COc1nc(N2C[C@H](N)C[C@@H](O)C2)c2cc(Cl)c(-c3cccc4sc(N)nc34)c(F)c2n1` [Compound 4, (3R,5R)-5-amino-1-(7-(2-aminobenzo[d]thiazol-4-yl)-6-chloro-8-fluoro-2-(((S)-1-methylpyrrolidin-2-yl)methoxy)quinazolin-4-yl)piperidin-3-ol], the IC50 was over 5000 nM at wildtype Kras and under 500 nM on mutant Kras.

`Nc1nc2c(-c3c(Cl)cc4c(N5CCNCC5)nc(OCC56CCCN5CCC6)nc4c3F)cccc2s1` [Compound 12, 4-(6-chloro-8-fluoro-4-(piperazin-1-yl)-2-((tetrahydro-1H-pyrrolizin-7a(5H)-yl)methoxy)quinazolin-7-yl)benzo[d]thiazol-2-amine]: the IC50 at wildtype Kras is 500 to 5000 nM; on mutant Kras, under 500 nM.

`CN1CCC[C@H]1COc1nc(N2C[C@@H](N)[C@@H](F)C2)c2cc(Cl)c(-c3cccc4sc(N)nc34)c(F)c2n1` [Compound 10, 4-(4-((3R,4S)-3-amino-4-fluoropyrrolidin-1-yl)-6-chloro-8-fluoro-2-(((S)-1-methylpyrrolidin-2-yl)methoxy)quinazolin-7-yl)benzo[d]thiazol-2-amine]: the IC50 on wildtype Kras and on mutant Kras was 500 to 5000 nM throughout.
